“And” between values parts separate entries of the source, which are not always exact repeats. Equal entries are not always repeated. “Also recorded” adds a separate entry of the source. Where two headings read alike, the source gives them in different places.
Legend:
D80^2.50A c-myc-D2LR = biological target: T1, D80^2.50A c-myc-D2LR (Homo sapiens, UniProt P14416, D80A); assay: [3H]spiperone competition binding, membranes of Flp-In CHO cells; conditions: for Ki / logα (logarithm of the cooperativity factor between the modulator and [3H]spiperone) / α (cooperativity factor with [3H]spiperone) / Kb: D80A; for Ki: 100 µM GppNHp; for Kb: allosteric ternary complex model
T1 construct: expressed in transfected cells
Procedure: (§1) Flp-In CHO cells (Invitrogen) were transfected with the pOG44 vector encoding Flp recombinase and the pDEST vector encoding the wild-type or mutant c-Myc-D2LR at a ratio of 9:1 using polyethylenimine (Polysciences, Warrington, PA) as transfection reagent. 24 hours after transfection the cells were subcultured and the medium was supplemented with 700 μg/ml hygromycin B as selection agent to obtain cells stably expressing the c-Myc-D2LR. FlpIn CHO cells stably expressing the wild-type or mutant c-Myc-D2LR were grown in Dulbecco’s modified Eagle’s medium (DMEM) supplemented with 10% fetal bovine serum and 200 µg/mL of Hygromycin-B, and maintained at 37 °C in a humidified incubator containing 5% CO2. When cells were approximately 90% confluent, they were harvested and centrifuged (300 g, 3 min, 4 °C). The resulting pellet was resuspended in assay buffer either in the presence (20 mM HEPES, 100 mM NaCl, 6 mM MgCl2, 1 mM EGTA, and 1 mM EDTA, pH 7.4) or absence (20 mM HEPES, 100 mM NMDG, 6 mM MgCl2, 1 mM EGTA, and 1 mM EDTA, pH 7.4) of sodium ions. The centrifugation procedure was repeated. The intact cell pellet was then resuspended in assay buffer and homogenized using a Polytron homogenizer for three 10 s intervals on the maximum setting, with 30 s periods on ice between each burst. The homogenate volume was brought up to 30 mL, the sample was centrifuged (350 g, 5 min, 4 °C), the pellet was discarded, and the supernatant was centrifuged at 30 000 g for 1 hr at 4 °C. The resulting pellet was resuspended in 5 mL of assay buffer, and the protein content was determined using the bicinchoninic acid assay (BCA assay). The homogenate was then separated into 500 µl aliquots and stored at −80 °C until it was required for binding assays.
(§2) Binding was terminated by fast-flow filtration over GF/B membranes using a Brandel harvester followed by three washes with ice-cold 0.9% NaCl. Bound radioactivity was measured in a Tri-Carb 2900TR liquid scintillation counter (PerkinElmer).
(§3) Values of α > 1 denote positive cooperativity, values < 1 (but > 0) denote negative cooperativity and values = 1 denote neutral cooperativity.
(§4) IC50 values obtained from the inhibition curves were converted to Ki values using the Cheng and Prusoff equation[35].

E95^2.65A c-myc-D2LR = biological target: T2, E95^2.65A c-myc-D2LR (Homo sapiens, UniProt P14416, E95A); assay: as above; conditions: for fold decrease in affinity at E95A mutant in the absence of Na+ vs E95A in the presence of Na+: 100 mM NMDG vs 100 mM NaCl; for Ki / logα (logarithm of the cooperativity factor between the modulator and [3H]spiperone) / α (cooperativity factor with [3H]spiperone) / Kb: E95A; for Ki: 100 µM GppNHp; for Kb: allosteric ternary complex model
T2 construct: expressed in transfected cells
Procedure: as §1, §2, §3, §4

WT c-myc-D2LR = biological target: T3, WT c-myc-D2LR (Homo sapiens, UniProt P14416); assay: as above; conditions: for fold loss in affinity in the absence of Na+ vs presence of Na+: WT D2LR, 100 mM NMDG vs 100 mM NaCl; for Ki / Kb / logα (logarithm of the cooperativity factor between the modulator and [3H]spiperone) / α (cooperativity factor with [3H]spiperone): WT
T3 construct: expressed in transfected cells
Procedure: as §1, §2, §3, §4

[1] = test system: D2R Tyr^7.43 to cysteine mutant; conditions: cited from earlier work
[2] = 100 mM NaCl, 0.15 nM [3H]spiperone, read-out: Ki (converted)
[3] = 100 mM NaCl, 0.15 nM [3H]spiperone, read-out: pKi (converted)
[4] = 100 mM NMDG (no Na+), 0.15 nM [3H]spiperone, read-out: Ki (converted)
[5] = 100 mM NMDG (no Na+), 0.15 nM [3H]spiperone, 100 µM GppNHp, read-out: pKi (converted)
[6] = 100 mM NaCl, 0.15 nM [3H]spiperone, 100 µM GppNHp, read-out: pKi (converted)
[7] = 100 mM NaCl, 0.5 nM [3H]spiperone
[8] = 100 mM NMDG (no Na+), 0.5 nM [3H]spiperone
[9] = 100 mM NMDG (no Na+), 0.15 nM [3H]spiperone
[10] = 100 mM NaCl, 0.15 nM [3H]spiperone
[11] = 100 mM NMDG (no Na+), 0.15 nM [3H]spiperone, ND = no inhibition of [3H]spiperone binding detected

T1 sequence (P14416 whole entry D80A): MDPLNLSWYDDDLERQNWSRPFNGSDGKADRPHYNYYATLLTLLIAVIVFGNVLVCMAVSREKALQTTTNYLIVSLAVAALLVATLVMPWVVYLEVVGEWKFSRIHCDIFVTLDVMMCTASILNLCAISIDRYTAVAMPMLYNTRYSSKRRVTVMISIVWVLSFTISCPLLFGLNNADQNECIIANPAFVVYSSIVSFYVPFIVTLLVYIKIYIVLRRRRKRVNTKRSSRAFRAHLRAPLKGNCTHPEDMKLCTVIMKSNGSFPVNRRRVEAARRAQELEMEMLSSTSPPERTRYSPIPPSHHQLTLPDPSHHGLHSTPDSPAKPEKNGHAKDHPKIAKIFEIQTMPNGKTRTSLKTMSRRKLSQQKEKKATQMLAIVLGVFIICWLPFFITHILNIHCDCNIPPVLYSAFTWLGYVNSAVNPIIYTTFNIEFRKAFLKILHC
T2 sequence (P14416 whole entry E95A): as the sequence (P14416 whole entry D80A) above, with A80D, E95A counted along it
T3 sequence (P14416 whole entry): as the sequence (P14416 whole entry D80A) above, with A80D counted along it

With `CC(=O)N[C@H]1CC[C@H](CCN2CCc3ccc(C#N)cc3C2)CC1` [MIPS1059, N-((trans)-4-(2-(7-cyano-3,4-dihydroisoquinolin-2(1H)yl)ethyl)cyclohexyl)acetamide] the “fold loss in affinity at D80A mutant vs WT” value (D80^2.50A c-myc-D2LR; 100 mM NaCl) was 5 fold, the Ki (D80^2.50A c-myc-D2LR; 100 mM NMDG (no Na+), 0.15 nM [3H]spiperone, read-out: pKi (converted)) was 1480 nM and the Ki (D80^2.50A c-myc-D2LR; [2]) was 1500 nM. For the same molecule, the Ki (D80^2.50A c-myc-D2LR; [3]) was 1510 nM, the “fold by which the WT vs E95A difference in affinity is greater in the presence of Na+ than in the absence of Na+” value (“fold by which the WT vs E95A difference” for short) (E95^2.65A c-myc-D2LR) was 2 fold and the “fold decrease in affinity at E95A mutant in the absence of Na+ vs E95A in the presence of Na+” value (from here on “fold decrease in affinity at E95A mutant”) (E95^2.65A c-myc-D2LR) was 5 fold. For the same molecule, the Ki (E95^2.65A c-myc-D2LR; [4]) was 4800 nM, the Ki (E95^2.65A c-myc-D2LR; [2]) was 1200 nM and the Ki (E95^2.65A c-myc-D2LR; [3]) was 1150 nM. For the same molecule, the “fold loss in affinity at E95A mutant vs WT” value (E95^2.65A c-myc-D2LR; absence of Na+ (100 mM NMDG)) was 3 fold, the “fold loss in affinity at E95A mutant vs WT” value (E95^2.65A c-myc-D2LR; presence of Na+ (100 mM NaCl)) was 5 fold and the “fold loss in affinity in the absence of Na+ vs presence of Na+” value (shortened to “fold loss in affinity in the absence”) (WT c-myc-D2LR) was 6 fold. For the same molecule, the Ki (WT c-myc-D2LR; [5]) was 1740 nM, the Ki (WT c-myc-D2LR; [6]) was 275 nM and the Ki (WT c-myc-D2LR; 100 mM NaCl, complete displacement of [3H]spiperone, read-out: Ki) was 275 nM.

In the case of `CCCN1CCc2ccc(C#N)cc2C1` [MIPS1071, 2-propyl-1,2,3,4-tetrahydroisoquinoline-7-carbonitrile], the “fold loss in affinity at D80A mutant vs WT” value (D80^2.50A c-myc-D2LR; 100 mM NaCl) is reported as 7 fold, the Ki (D80^2.50A c-myc-D2LR; [4]) is reported as 7200 nM and the Ki (D80^2.50A c-myc-D2LR; [2]) is reported as 9300 nM. For the same molecule, the Ki (E95^2.65A c-myc-D2LR; [4]) was 7600 nM, the Ki (E95^2.65A c-myc-D2LR; [3]) was 1260 nM and the “fold loss in affinity at E95A mutant vs WT” value (E95^2.65A c-myc-D2LR; absence of Na+ (100 mM NMDG)) was “not changed”. For the same molecule, the “fold loss in affinity at E95A mutant vs WT” value (E95^2.65A c-myc-D2LR; presence of Na+ (100 mM NaCl)) was “not changed”, the “fold loss in affinity in the absence” value (WT c-myc-D2LR) was 9 fold and the Ki (WT c-myc-D2LR; [5]) was 12000 nM. It also gave a Ki (WT c-myc-D2LR; [6]) of 1260 nM.

With `N#Cc1ccc2c(c1)CN(CC[C@H]1CC[C@H](NC(=O)c3cc4ccncc4[nH]3)CC1)CC2` [MIPS1726] the “fold loss in affinity at D80A mutant vs WT” value (D80^2.50A c-myc-D2LR; 100 mM NaCl) was over 10 fold, the “logα (logarithm of the cooperativity factor between the modulator and [3H]spiperone)” value (from here on “logα”) (D80^2.50A c-myc-D2LR; [7]) was −2.13 ± 0.27 and the “α (cooperativity factor with [3H]spiperone)” value (D80^2.50A c-myc-D2LR; [7]) was 0.007. For the same molecule, the Kb (D80^2.50A c-myc-D2LR; [7]) was 316 nM, the “fold by which the WT vs E95A difference” value (E95^2.65A c-myc-D2LR) was 2 fold and the “fold decrease in affinity at E95A mutant” value (E95^2.65A c-myc-D2LR) was 7 fold. For the same molecule, the “logα” value (E95^2.65A c-myc-D2LR; [8]) was −1.89 ± 0.31, the “α (cooperativity factor with [3H]spiperone)” value (E95^2.65A c-myc-D2LR; [8]) was 0.01 and the Kb (E95^2.65A c-myc-D2LR; [8]) was 812 nM. For the same molecule, the “logα” value (E95^2.65A c-myc-D2LR; [7]) was −1.91 ± 0.12, the “α (cooperativity factor with [3H]spiperone)” value (E95^2.65A c-myc-D2LR; [7]) was 0.01 and the Kb (E95^2.65A c-myc-D2LR; [7]) was 123 nM. For the same molecule, the “fold loss in affinity at E95A mutant vs WT” value (E95^2.65A c-myc-D2LR; absence of Na+ (100 mM NMDG)) was 2 fold, the “fold loss in affinity at E95A mutant vs WT” value (E95^2.65A c-myc-D2LR; presence of Na+ (100 mM NaCl)) was 4 fold and the Kb (WT c-myc-D2LR; 0.15 nM [3H]spiperone, radioligand completely displaced, read-out: pKB (converted)) was 9.77 nM. For the same molecule, the “logα” value (WT c-myc-D2LR; [8]) was −2.26 ± 0.39, the “α (cooperativity factor with [3H]spiperone)” value (WT c-myc-D2LR; [8]) was 0.005 and the Kb (WT c-myc-D2LR; 100 mM NMDG (no Na+), allosteric ternary complex model, 0.5 nM [3H]spiperone, read-out: KB (converted)) was 398 nM. The “logα” value (WT c-myc-D2LR; [7]) was −1.90 ± 0.08, the “α (cooperativity factor with [3H]spiperone)” value (WT c-myc-D2LR; [7]) was 0.01 and the Kb (WT c-myc-D2LR; 100 mM NaCl, allosteric ternary complex model, 0.5 nM [3H]spiperone, read-out: KB (converted)) was 30 nM and 30.2 nM.

For `N#Cc1ccc2c(c1)CN(CC[C@H]1CC[C@H](NC(=O)c3cc4cccc(F)c4[nH]3)CC1)CC2` [MIPS1868], the “fold loss in affinity at D80A mutant vs WT” value (D80^2.50A c-myc-D2LR; 100 mM NaCl) was 6 fold, the “logα” value (D80^2.50A c-myc-D2LR; [9]) was −0.87 ± 0.12 and the “α (cooperativity factor with [3H]spiperone)” value (D80^2.50A c-myc-D2LR; [9]) was 0.13. For the same molecule, the Kb (D80^2.50A c-myc-D2LR; [9]) was 468 nM, the “α (cooperativity factor with [3H]spiperone)” value (D80^2.50A c-myc-D2LR; [10]) was 0.23 and the “logα” value (D80^2.50A c-myc-D2LR; 100 mM NaCl, 0.15 nM [3H]spiperone, ND = no inhibition of [3H]spiperone binding detected) was −0.62 ± 0.06. For the same molecule, the Kb (D80^2.50A c-myc-D2LR; [10]) was 631 nM, the “fold loss of negative cooperativity at D80A mutant vs WT” value (D80^2.50A c-myc-D2LR; cooperativity with [3H]spiperone) was 4 fold and 6 fold and the “fold by which the WT vs E95A difference” value (E95^2.65A c-myc-D2LR) was 2 fold. The “fold decrease in affinity at E95A mutant” value (E95^2.65A c-myc-D2LR) was 3 fold, the “α (cooperativity factor with [3H]spiperone)” value (E95^2.65A c-myc-D2LR; [9]) was 0.06 and the “logα” value (E95^2.65A c-myc-D2LR; [11]) was −1.24 ± 0.16. The Kb (E95^2.65A c-myc-D2LR; [9]) was 617 nM, the “logα” value (E95^2.65A c-myc-D2LR; [10]) was −1.39 ± 0.11 and the “α (cooperativity factor with [3H]spiperone)” value (E95^2.65A c-myc-D2LR; [10]) was 0.04. For the same molecule, the Kb (E95^2.65A c-myc-D2LR; [10]) was 212 nM, the “fold loss in affinity at E95A mutant vs WT” value (E95^2.65A c-myc-D2LR; absence of Na+ (100 mM NMDG)) was “no significant difference; also recorded: no additional effect” and the “fold loss in affinity at E95A mutant vs WT” value (E95^2.65A c-myc-D2LR; presence of Na+ (100 mM NaCl)) was 2 fold. The “fold loss in affinity in the absence” value (WT c-myc-D2LR) was 6 fold and 5 fold, the “α (cooperativity factor with [3H]spiperone)” value (WT c-myc-D2LR; [9]) was 0.03 and the “logα” value (WT c-myc-D2LR; [11]) was −1.48 ± 0.12. For the same molecule, the Kb (WT c-myc-D2LR; 100 mM NMDG (no Na+), allosteric ternary complex model, 0.15 nM [3H]spiperone, read-out: KB (converted)) was 631 nM, the “logα” value (WT c-myc-D2LR; [10]) was −1.45 ± 0.12 and the “α (cooperativity factor with [3H]spiperone)” value (WT c-myc-D2LR; [10]) was 0.04. The Kb (WT c-myc-D2LR; 100 mM NaCl, allosteric ternary complex model, 0.15 nM [3H]spiperone, read-out: KB (converted)) was 100 nM.

In the case of `CN1CN(c2ccccc2)C2(CCN(CCCC(=O)c3ccc(F)cc3)CC2)C1=O` [N-methyl-spiperone], the “fold decrease in affinity upon mutation of Tyr^7.43 to cysteine” value [1] is given as 3 fold.

In the case of `CCN1CCCC1CNC(=O)c1cc(S(N)(=O)=O)ccc1OC` (stereo not shown) [sulpiride], the “fold decrease in affinity upon mutation of Tyr^7.43 to cysteine” value [1] is listed as 185 fold.

Source: publication PMC5775417 (Scientific Reports, 2018)
